This passage reports T/C results from PubChem BioAssay AID256 (DTP/NCI, 2004).

Values joined by “and” are separate entries in the source; they are usually repeats but may differ in a detail not shown here. Equal entries are not always repeated. Toxic doses and inconclusive results are not listed.

For the assay, the system named is CD2F1 mice, L1210 leukemia ip, survival T/C. The assay is described as follows: NCI In Vivo Anticancer Drug Screen. Data for tumor model L1210 Leukemia (intraperitoneal) in CD2F1 (CDF1) mice. As to conditions: higher = longer survival. Summed up: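 Vehicle-treated tumor-bearing mice served as controls (C) for compound-treated mice (T). Reported figure is T divided by C.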

Where [1] appears, read: endpoint: mean survival time, dose: 100.0 mg/kg/injection, schedule: Q01DX009 (ip), vehicle: Klucel (hydroxypropylcellulose) (HPC).
Where [2] appears, read: endpoint: mean survival time, dose: 100.0 mg/kg/injection, schedule: Q04DX003 (ip), vehicle: saline with Tween-80.
Setting [3] is: endpoint: mean survival time, dose: 200.0 mg/kg/injection, schedule: Q01DX009 (ip), vehicle: Klucel (hydroxypropylcellulose) (HPC).
Where [4] appears, read: endpoint: mean survival time, dose: 200.0 mg/kg/injection, schedule: Q04DX003 (ip), vehicle: saline with Tween-80.
Setting [5] is: endpoint: mean survival time, dose: 400.0 mg/kg/injection, schedule: Q04DX003 (ip), vehicle: saline with Tween-80.
The mark [6] stands for this setting: endpoint: mean survival time, dose: 100.0 mg/kg/injection, schedule: Q04DX002 (ip), vehicle: saline.
The mark [7] stands for this setting: endpoint: mean survival time, dose: 25.0 mg/kg/injection, schedule: Q01DX009 (ip), vehicle: saline with Tween-80.
Setting [8] is: endpoint: mean survival time, dose: 50.0 mg/kg/injection, schedule: Q01DX009 (ip), vehicle: saline with Tween-80.
Where [9] appears, read: endpoint: mean survival time, dose: 100.0 mg/kg/injection, schedule: Q01DX009 (ip), vehicle: saline with Tween-80.
The mark [10] stands for this setting: endpoint: mean survival time, dose: 200.0 mg/kg/injection, schedule: Q01DX009 (ip), vehicle: saline with Tween-80.
The mark [11] stands for this setting: endpoint: mean survival time, dose: 400.0 mg/kg/injection, schedule: Q01DX009 (ip), vehicle: saline with Tween-80.

Consider `COC(=O)COc1cccc(NC(=O)CC(=O)c2cccc([N+](=O)[O-])c2)c1`, for which the T/C under setting [1] was 98 % of control; the T/C under setting [2] is 101 % of control; the T/C under setting [3] is 97 % of control; the T/C under setting [4] is 98 % of control; the T/C (endpoint: mean survival time, dose: 400.0 mg/kg/injection, schedule: Q01DX009 (ip), vehicle: Klucel (hydroxypropylcellulose) (HPC)) is 96 % of control; the T/C under setting [5] is 93 % of control.
For the compound `COc1cc(C=Nc2cc(Br)cc(Br)c2)ccc1N(CCCl)CCCl`, where the note is “endpoint: mean survival time, dose: 200.0 mg/kg/injection, schedule: Q01DX001 (ip), vehicle: other”, the T/C was 150 % of control.
For `c1ccc(Nc2ccccc2)cc1` (tested in a mixture with another compound), under setting [6], the T/C was 95 % of control.
As to `c1cncc(-c2nc3ccccc3s2)c1`, the T/C is, setting by setting: (endpoint: mean survival time, dose: 100.0 mg/kg/injection, schedule: Q04DX003 (ip), vehicle: Klucel (hydroxypropylcellulose) (HPC)) 103 % of control; (endpoint: mean survival time, dose: 200.0 mg/kg/injection, schedule: Q04DX003 (ip), vehicle: Klucel (hydroxypropylcellulose) (HPC)) 100 % of control; (endpoint: mean survival time, dose: 400.0 mg/kg/injection, schedule: Q04DX003 (ip), vehicle: Klucel (hydroxypropylcellulose) (HPC)) 100 % of control.
As to `N#CC1(NC(=O)N(CCCl)N=O)CCCCC1`, the T/C runs as follows: (endpoint: mean survival time, dose: 6.25 mg/kg/injection, schedule: Q01DX001 (ip), vehicle: distilled water + Tween-80) 119 % of control and 108 % of control; (endpoint: mean survival time, dose: 25.0 mg/kg/injection, schedule: Q01DX001 (ip), vehicle: distilled water + Tween-80) 150 % of control; (endpoint: mean survival time, dose: 50.0 mg/kg/injection, schedule: Q01DX001 (ip), vehicle: distilled water + Tween-80) 172 % of control and 258 % of control.
Consider `CC(Cc1ccccc1)NC(C#N)c1ccccc1` (stereo unspecified), for which the T/C runs as follows: (endpoint: mean survival time, dose: 12.5 mg/kg/injection, schedule: Q01DX009 (ip), vehicle: saline with Tween-80) 102 % of control; under setting [7], 98 % of control; under setting [8], 101 % of control.
`Cc1c(N)nc(C(CC(N)=O)NCC(N)C(N)=O)nc1C(=O)NC(C(=O)NC(C)C(O)C(C)C(=O)NC(C(=O)NCCc1nc(-c2nc(C(=O)NCCCNCCCc3ccccn3)cs2)cs1)C(C)O)C(OC1OC(CO)C(O)C(O)C1OC1OC(CO)C(O)C(OC(N)=O)C1O)c1cnc[nH]1` (stereo unspecified): the T/C runs as follows: (endpoint: mean survival time, dose: 0.2 mg/kg/injection, schedule: Q01DX009 (ip), vehicle: water) 101 % of control; (endpoint: mean survival time, dose: 0.4 mg/kg/injection, schedule: Q01DX009 (ip), vehicle: water) 107 % of control; (endpoint: mean survival time, dose: 0.8 mg/kg/injection, schedule: Q01DX009 (ip), vehicle: water) 98 % of control; (endpoint: mean survival time, dose: 1.6 mg/kg/injection, schedule: Q01DX009 (ip), vehicle: water) 104 % of control; (endpoint: mean survival time, dose: 3.2 mg/kg/injection, schedule: Q01DX009 (ip), vehicle: water) 104 % of control; (endpoint: mean survival time, dose: 6.25 mg/kg/injection, schedule: Q01DX009 (ip), vehicle: saline) 111 % of control. For the same compound, the T/C was 107 % of control (endpoint: mean survival time, dose: 6.4 mg/kg/injection, schedule: Q01DX009 (ip), vehicle: water); 103 % of control (endpoint: mean survival time, dose: 12.5 mg/kg/injection, schedule: Q01DX009 (ip), vehicle: saline); 108 % of control (endpoint: mean survival time, dose: 25.0 mg/kg/injection, schedule: Q01DX009 (ip), vehicle: saline); 105 % of control (endpoint: mean survival time, dose: 50.0 mg/kg/injection, schedule: Q01DX009 (ip), vehicle: saline).
`CCCCCCCCCCCCCCCCCCc1ccc(O)cc1O`: the T/C by setting is: under setting [9], 96 % of control; under setting [10], 101 % of control; under setting [11], 104 % of control.
`Nc1ccc(CCCCc2ccc(Cl)cc2Cl)cc1`: the T/C is, setting by setting: under setting [2], 104 % of control; under setting [4], 110 % of control.
As to `CC(=O)CC(=O)C(F)(F)F.CC(=O)CC(=O)C(F)(F)F.[Ni]`, the T/C (endpoint: median survival time, dose: 25.0 mg/kg/injection, schedule: Q04DX002 (ip), vehicle: saline with Tween-80) is 100 % of control and the T/C (endpoint: median survival time, dose: 50.0 mg/kg/injection, schedule: Q04DX002 (ip), vehicle: saline with Tween-80) is 122 % of control.
In the case of `O=[N+]([O-])c1cc(Cl)c(Cl)cc1Cl`, the T/C under setting [9] was 92 % of control; the T/C under setting [2] was 106 % of control; the T/C under setting [10] was 104 % of control; the T/C under setting [4] is 101 % of control; the T/C under setting [5] was 118 % of control.
As for `N#CS.N=C=S.N=C=S.[Co+3].[NH-]CC[NH-].[NH-]CC[NH-]`, the T/C was 111 % of control under setting [6] and 104 % of control (endpoint: mean survival time, dose: 200.0 mg/kg/injection, schedule: Q04DX002 (ip), vehicle: saline).
Regarding `COc1cc(CO)ccc1Oc1ccc(C)cc1`, the T/C by setting is: (endpoint: mean survival time, dose: 100.0 mg/kg/injection, schedule: Q01DX001 (ip), vehicle: saline) 104 % of control; (endpoint: mean survival time, dose: 100.0 mg/kg/injection, schedule: Q04DX003 (ip), vehicle: saline) 100 % of control; (endpoint: mean survival time, dose: 200.0 mg/kg/injection, schedule: Q01DX001 (ip), vehicle: saline) 107 % of control; (endpoint: mean survival time, dose: 200.0 mg/kg/injection, schedule: Q04DX003 (ip), vehicle: saline) 100 % of control; (endpoint: mean survival time, dose: 400.0 mg/kg/injection, schedule: Q01DX001 (ip), vehicle: saline) 100 % of control; (endpoint: mean survival time, dose: 400.0 mg/kg/injection, schedule: Q04DX003 (ip), vehicle: saline) 101 % of control.
For `CC(C)(C)C1=CC(=O)C(C#N)=C(C#N)C1=O`, under setting [7], the T/C is 96 % of control.
`N#C/C(=C\C1CC(Br)CCC1O)C1CCC([N+](=O)[O-])CC1` (stereo unspecified): the T/C is 86 % of control under setting [8] and 88 % of control under setting [9].
For `CCN(CCNC(=O)Nc1ccccc1OC)c1ccccc1`, the T/C (endpoint: mean survival time, dose: 100.0 mg/kg/injection, schedule: Q04DX002 (ip), vehicle: saline with Tween-80) was 98 % of control; the T/C (endpoint: mean survival time, dose: 200.0 mg/kg/injection, schedule: Q04DX002 (ip), vehicle: saline with Tween-80) was 94 % of control; the T/C (endpoint: mean survival time, dose: 400.0 mg/kg/injection, schedule: Q04DX002 (ip), vehicle: saline with Tween-80) is 94 % of control.
For the compound `CC(=O)OCC1OC(OC2=C(CC=C(C)C)C(=O)c3ccccc3C2=O)C(OC(C)=O)C(OC(C)=O)C1OC(C)=O` (stereo unspecified), the T/C is, setting by setting: (endpoint: mean survival time, dose: 6.25 mg/kg/injection, schedule: Q01DX009 (ip), vehicle: Klucel (hydroxypropylcellulose) (HPC)) 108 % of control; (endpoint: mean survival time, dose: 12.5 mg/kg/injection, schedule: Q01DX009 (ip), vehicle: Klucel (hydroxypropylcellulose) (HPC)) 101 % of control and 108 % of control; (endpoint: mean survival time, dose: 25.0 mg/kg/injection, schedule: Q01DX009 (ip), vehicle: Klucel (hydroxypropylcellulose) (HPC)) 101 % of control and 108 % of control; (endpoint: mean survival time, dose: 50.0 mg/kg/injection, schedule: Q01DX009 (ip), vehicle: Klucel (hydroxypropylcellulose) (HPC)) 101 % of control; under setting [1], 92 % of control and 102 % of control; under setting [3], 89 % of control and 96 % of control.
`COC(=O)CCCCC(C)=O`: the T/C reads like this: under setting [9], 101 % of control; (endpoint: mean survival time, dose: 100.0 mg/kg/injection, schedule: Q04DX003 (ip), vehicle: saline sonified) 98 % of control; under setting [10], 101 % of control; (endpoint: mean survival time, dose: 200.0 mg/kg/injection, schedule: Q04DX003 (ip), vehicle: saline sonified) 98 % of control; under setting [11], 98 % of control; (endpoint: mean survival time, dose: 400.0 mg/kg/injection, schedule: Q04DX003 (ip), vehicle: saline sonified) 102 % of control.
As for `O=C(O)/C=C/C(=O)Nc1cccc2cccnc12`, the T/C reads like this: under setting [9], 93 % of control; under setting [2], 98 % of control; under setting [10], 102 % of control; under setting [4], 93 % of control; under setting [11], 100 % of control; under setting [5], 98 % of control.
Consider `CCOc1ccnc(OCC)n1`, for which the T/C under setting [2] was 105 % of control and the T/C under setting [4] is 102 % of control.
Turning to `CCOP(=O)(Cc1cccc2ccccc12)OCC`, the T/C runs as follows: (endpoint: mean survival time, dose: 100.0 mg/kg/injection, schedule: Q01DX001 (ip), vehicle: Klucel (hydroxypropylcellulose) (HPC)) 103 % of control; (endpoint: mean survival time, dose: 200.0 mg/kg/injection, schedule: Q01DX001 (ip), vehicle: Klucel (hydroxypropylcellulose) (HPC)) 96 % of control; (endpoint: mean survival time, dose: 400.0 mg/kg/injection, schedule: Q01DX001 (ip), vehicle: Klucel (hydroxypropylcellulose) (HPC)) 100 % of control.
Take `C=CCc1nc2c(N)ncnc2n1C1OC(CO)C(O)C1O` (stereo unspecified): the T/C reads like this: (endpoint: median survival time, dose: 12.5 mg/kg/injection, schedule: Q01DX005 (ip), vehicle: water) 105 % of control; (endpoint: median survival time, dose: 25.0 mg/kg/injection, schedule: Q01DX005 (ip), vehicle: water) 104 % of control; (endpoint: median survival time, dose: 50.0 mg/kg/injection, schedule: Q01DX005 (ip), vehicle: water) 102 % of control; (endpoint: median survival time, dose: 100.0 mg/kg/injection, schedule: Q01DX005 (ip), vehicle: water) 102 % of control; (endpoint: median survival time, dose: 200.0 mg/kg/injection, schedule: Q01DX005 (ip), vehicle: water) 104 % of control.
